Several values for one entry are separate records, joined by “and”; a condition that tells them apart may be missing. Equal values may be shown once. Read-outs that look alike come from different tables or passages of the source. Square brackets hold non-standard residues; d marks the D form. Ends that are not written are not given here. Peptide text beside a SMILES is read from it. Tpi = O=C(O)[C@@H]1Cc2c([nH]c3ccccc23)CN1
Experiments:
[1] = target: T1, human (h) α3β2 nAChR (Homo sapiens, UniProt P17787+P32297); experiment: Two-electrode voltage clamp, inhibition of ACh-evoked currents at hα3β2 nAChR in Xenopus oocytes; format: cell-based; details: for Relative current amplitude (h)α3β2: compound 100 µM, currents activated by 6 μM ACh, ratio ACh + compound to ACh alone, mean ± SD, n = 6–11
T1 construct: host or cells: Xenopus laevis oocytes, cRNA injected
Protocol: (§1) All procedures were approved by the University of Wollongong Animal Ethics Committees (project number: AE2003). Female Xenopus laevis were sourced from Nasco (Fort Atkinson, WI, USA), and a maximum of four frogs were kept in a 15 L aquarium at 20–26 °C with 12 h light/dark cycle. Oocytes were obtained from five-year-old frogs anesthetized with 1.7 mg/mL ethyl 3-aminobenzoate methanesulfonate (pH 7.4 with NaHCO3). Stage V-VI oocytes (Dumont’s classification; 1200–1300 μm diameter) were defolliculated with 1.5 mg/mL collagenase Type II (Worthington Biochemical Corp., Lakewood, NJ, USA) at room temperature for 1–2 h in OR-2 solution containing (in mM): 82.5 NaCl, 2 KCl, 1 MgCl2 and 5 HEPES at pH 7.4.
(§2) The human muscle nAChR clones (α1, β1, γ, δ and ε) were purchased from Integrated DNA Technologies (Coralville, IA, USA), whereas the human α3, α9, α10, β2, and β4 clones were purchased from OriGene (Rockville, MD, USA), and all were subsequently inserted into the pT7TS vector. The human α4 and α7 clones were obtained from Prof. Jon Lindstrom (University of Pennsylvania, Philadelphia, PA, USA). Plasmid constructs of the human nAChR clones were linearized for in vitro mRNA synthesis using mMessage mMachine transcription kit (AMBION, Forster City, CA, USA).
(§3) Oocytes were injected with 5 ng cRNA for hα1β1γδ, hα1β1εδ, hα3β2, hα3β4 and hα4β2, 10 ng cRNA for hα7 nAChR, and 35 ng cRNA for hα9α10 nAChR (concentration confirmed spectrophotometrically and by gel electrophoresis). The muscle subunit cRNA ratio was 2:1:1:1 (α1:β1: γ/ε:δ), whereas the heteromeric α and β subunit cRNA ratio was 1:1, injected using glass pipettes pulled from glass capillaries (3-000-203 GX, Drummond Scientific Co., Broomall, PA, USA). Oocytes were incubated at 18 °C in sterile ND96 solution composed of (in mM): 96 NaCl, 2 KCl, 1 CaCl2, 1 MgCl2, and 5 HEPES at pH 7.4, supplemented with 5% fetal bovine serum, 50 mg/L gentamicin (GIBCO, Grand Island, NY, USA) and […] penicillin-streptomycin (GIBCO).
(§4) Electrophysiological recordings were carried out 2–5 days post cRNA microinjection. Two-electrode voltage clamp recordings of X. laevis oocytes expressing human nAChRs were performed at room temperature (21–24 °C) using a GeneClamp 500B amplifier and pClamp9 software interface (Molecular Devices, Sunnyvale, CA, USA) at a holding potential −80 mV. Voltage-recording and current-injecting electrodes were pulled from GC150T-7.5 borosilicate glass (Harvard Apparatus, Holliston, MA) and filled with 3 M KCl, giving resistances of 0.3–1 MΩ. Due to the Ca^2+ permeability of α9α10 nAChRs, 100 µM BAPTA-AM incubation was carried out before recording to prevent the activation of X. laevis oocyte endogenous Ca^2+-activated chloride channels. Oocytes expressing hα9α10 nAChRs were perfused with ND115 solution containing (in mM): 115 NaCl, 2.5 KCl, 1.8 CaCl2, and 10 HEPES at pH 7.4, whereas oocytes expressing all other nAChR subtypes were perfused with ND96 solution using a continuous Legato 270 push/pull syringe pump perfusion system (KD Scientific, Holliston, MA, USA) at a rate of 2 mL/min in an OPC-1 perfusion chamber of <20 µL volume (Automate Scientific, Berkeley, CA, USA).
(§5) Initially, oocytes were briefly washed with ND115/ND96 solution, followed by 3 applications of ACh at a half-maximal excitatory ACh concentration (EC50) for the nAChR subtypes (3 µM for hα4β2, 5 µM for hα1β1γδ and hα1β1εδ, 6 µM for hα3β2 and hα9α10, 100 µM for hα7 and 300 µM for hα3β4). Washout with bath solution was performed for 3 min between ACh applications. Oocytes were incubated with compounds for 5 min with the perfusion system turned off, followed by co-application of ACh and compound with flowing bath solution. All compound solutions were prepared in ND115/ND96 + 0.1% bovine serum albumin (BSA). Incubation with 0.1% BSA was performed to ensure that the BSA and the pressure of the perfusion system had no effect on nAChRs. […]

[2] = target: T2, human (h) α9α10 nAChR (Homo sapiens, UniProt Q9GZZ6+Q9UGM1); experiment: Two-electrode voltage clamp, inhibition of ACh-evoked currents at hα9α10 nAChR in Xenopus oocytes; format: cell-based; details: for Relative current amplitude (h)α9α10: compound 100 µM, currents activated by 6 μM ACh, ratio ACh + compound to ACh alone, mean ± SD, n = 6–11
T2 construct: host or cells: Xenopus laevis oocytes, cRNA injected
Protocol: as §1, §2, §3, §4, §5

[3] = target: T3, human (h) α1β1γδ nAChR (Homo sapiens, UniProt P02708+P07510+P11230+Q07001); experiment: Two-electrode voltage clamp, inhibition of ACh-evoked currents at hα1β1γδ nAChR in Xenopus oocytes; format: cell-based; details: for Relative current amplitude (h)α1β1γδ: compound 100 µM, currents activated by 5 μM ACh, ratio ACh + compound to ACh alone, mean ± SD, n = 6–11
T3 construct: host or cells: Xenopus laevis oocytes, cRNA injected
Protocol: as §1, §2, §3, §4, §5

[4] = target: T4, human (h) α3β4 nAChR (Homo sapiens, UniProt P30926+P32297); experiment: Two-electrode voltage clamp, inhibition of ACh-evoked currents at hα3β4 nAChR in Xenopus oocytes; format: cell-based; details: for Relative current amplitude (h)α3β4: compound 100 µM, currents activated by 300 μM ACh, ratio ACh + compound to ACh alone, mean ± SD, n = 6–11
T4 construct: host or cells: Xenopus laevis oocytes, cRNA injected
Protocol: as §1, §2, §3, §4, §5

[5] = target: T5, human (h) α4β2 nAChR (Homo sapiens, UniProt P17787+P43681); experiment: Two-electrode voltage clamp, inhibition of ACh-evoked currents at hα4β2 nAChR in Xenopus oocytes; format: cell-based; details: for Relative current amplitude (h)α4β2: compound 100 µM, currents activated by 3 μM ACh, ratio ACh + compound to ACh alone, mean ± SD, n = 6–11
T5 construct: Jon Lindstrom; β2: OriGene (clones); host or cells: Xenopus laevis oocytes, cRNA injected
Protocol: as §1, §2, §3, §4, §5

[6] = target: T6, human (h) α1β1εδ nAChR (Homo sapiens, UniProt P02708+P11230+Q04844+Q07001); experiment: Two-electrode voltage clamp, inhibition of ACh-evoked currents at hα1β1εδ nAChR in Xenopus oocytes; format: cell-based; details: for Relative current amplitude (h) α1β1εδ: compound 100 µM, currents activated by 5 μM ACh, ratio ACh + compound to ACh alone, mean ± SD, n = 6–11
T6 construct: host or cells: Xenopus laevis oocytes, cRNA injected
Protocol: as §1, §2, §3, §4, §5
Target sequence in this assay (P02708 21-457 limits assumed): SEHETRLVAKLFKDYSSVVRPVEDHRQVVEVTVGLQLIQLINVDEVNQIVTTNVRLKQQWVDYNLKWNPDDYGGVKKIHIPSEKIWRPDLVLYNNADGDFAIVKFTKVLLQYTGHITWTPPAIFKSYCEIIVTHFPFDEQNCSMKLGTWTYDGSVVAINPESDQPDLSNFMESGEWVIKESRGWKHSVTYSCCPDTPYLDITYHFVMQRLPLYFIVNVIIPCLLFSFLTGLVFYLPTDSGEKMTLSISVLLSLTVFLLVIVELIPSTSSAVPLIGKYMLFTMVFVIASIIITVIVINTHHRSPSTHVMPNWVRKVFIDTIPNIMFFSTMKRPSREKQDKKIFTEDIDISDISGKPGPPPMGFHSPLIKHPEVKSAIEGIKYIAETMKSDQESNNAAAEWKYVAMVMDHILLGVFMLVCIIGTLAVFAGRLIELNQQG
Target sequence in this assay (P11230 24-501 limits assumed): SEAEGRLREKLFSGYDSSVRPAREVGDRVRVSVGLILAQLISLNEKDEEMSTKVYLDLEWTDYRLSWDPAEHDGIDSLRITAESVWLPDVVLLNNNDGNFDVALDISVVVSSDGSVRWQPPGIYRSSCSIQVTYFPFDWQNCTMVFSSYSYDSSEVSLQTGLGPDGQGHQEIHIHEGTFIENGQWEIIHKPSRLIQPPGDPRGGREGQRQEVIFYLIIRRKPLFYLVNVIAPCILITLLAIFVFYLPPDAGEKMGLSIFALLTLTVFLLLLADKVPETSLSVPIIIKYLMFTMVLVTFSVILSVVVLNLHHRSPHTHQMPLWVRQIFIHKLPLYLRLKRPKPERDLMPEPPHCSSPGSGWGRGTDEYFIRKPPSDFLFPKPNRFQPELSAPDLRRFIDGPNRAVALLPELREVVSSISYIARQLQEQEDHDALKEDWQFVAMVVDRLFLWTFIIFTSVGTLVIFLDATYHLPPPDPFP
Target sequence in this assay (Q04844 21-493 limits assumed): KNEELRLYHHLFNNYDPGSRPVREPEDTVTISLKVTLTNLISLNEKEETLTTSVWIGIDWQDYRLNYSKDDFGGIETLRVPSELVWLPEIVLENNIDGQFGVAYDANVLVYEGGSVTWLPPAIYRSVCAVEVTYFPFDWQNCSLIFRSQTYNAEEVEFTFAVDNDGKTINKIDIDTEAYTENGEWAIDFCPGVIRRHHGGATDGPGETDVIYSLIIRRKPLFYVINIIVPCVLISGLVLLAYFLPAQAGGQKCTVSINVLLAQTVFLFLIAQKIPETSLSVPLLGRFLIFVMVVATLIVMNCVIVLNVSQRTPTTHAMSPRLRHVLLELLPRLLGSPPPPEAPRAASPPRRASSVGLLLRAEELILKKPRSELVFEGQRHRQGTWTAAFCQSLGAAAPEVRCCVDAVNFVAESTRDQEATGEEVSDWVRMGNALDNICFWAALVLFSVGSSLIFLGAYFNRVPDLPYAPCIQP
Target sequence in this assay (Q07001 22-517 limits assumed): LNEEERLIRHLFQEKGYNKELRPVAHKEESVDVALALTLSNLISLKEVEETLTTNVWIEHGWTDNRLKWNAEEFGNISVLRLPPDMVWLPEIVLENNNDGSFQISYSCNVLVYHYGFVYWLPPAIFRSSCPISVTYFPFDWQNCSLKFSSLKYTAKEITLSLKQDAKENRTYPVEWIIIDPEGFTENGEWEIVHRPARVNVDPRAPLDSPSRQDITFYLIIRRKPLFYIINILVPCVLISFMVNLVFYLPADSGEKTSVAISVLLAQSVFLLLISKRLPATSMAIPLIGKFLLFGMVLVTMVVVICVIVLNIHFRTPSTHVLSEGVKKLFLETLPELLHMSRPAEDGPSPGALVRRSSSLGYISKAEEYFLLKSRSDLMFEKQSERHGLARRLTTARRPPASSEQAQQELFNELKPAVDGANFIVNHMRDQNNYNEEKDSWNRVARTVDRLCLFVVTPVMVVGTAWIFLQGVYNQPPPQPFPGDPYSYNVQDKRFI

[7] = target: T7, human (h) α7 nAChR (Homo sapiens, UniProt P36544); experiment: Two-electrode voltage clamp, inhibition of ACh-evoked currents at hα7 nAChR in Xenopus oocytes; format: cell-based; details: compound 100 µM; currents activated by 100 μM ACh; ratio ACh + compound to ACh alone; mean ± SD, n = 6–11
T7 construct: Jon Lindstrom (clone); host or cells: Xenopus laevis oocytes, cRNA injected
Protocol: as §1, §2, §3, §4, §5

[8] = system: HL60 cell lines; details: cited from earlier work
[9] = system: BEL-7047 cell lines; set-up: method as in doi:10.1016/j.tet.2008.11.078; details: read-out: IC50, cytotoxicity against BEL-7047 cell lines; cited from earlier work
[10] = system: NF-kB; set-up: method as in doi:10.1016/j.tet.2012.09.038; details: cited from earlier work
[11] = system: Balamus amphitrite; set-up: method as in doi:10.1016/j.tetlet.2015.12.026; details: cited from earlier work
[12] = target: T6, human (h) α1β1εδ nAChR; details: read-out: half-maximal inhibitory concentration (IC50), ACh-evoked currents mediated by hα1β1εδ; cited from earlier work
[13] = compound 100 µM (Figure 3, Table S1)
[14] = compound 100 µM (Figure 3, Table S1), 100 µM

T7 sequence (P36544 23-502): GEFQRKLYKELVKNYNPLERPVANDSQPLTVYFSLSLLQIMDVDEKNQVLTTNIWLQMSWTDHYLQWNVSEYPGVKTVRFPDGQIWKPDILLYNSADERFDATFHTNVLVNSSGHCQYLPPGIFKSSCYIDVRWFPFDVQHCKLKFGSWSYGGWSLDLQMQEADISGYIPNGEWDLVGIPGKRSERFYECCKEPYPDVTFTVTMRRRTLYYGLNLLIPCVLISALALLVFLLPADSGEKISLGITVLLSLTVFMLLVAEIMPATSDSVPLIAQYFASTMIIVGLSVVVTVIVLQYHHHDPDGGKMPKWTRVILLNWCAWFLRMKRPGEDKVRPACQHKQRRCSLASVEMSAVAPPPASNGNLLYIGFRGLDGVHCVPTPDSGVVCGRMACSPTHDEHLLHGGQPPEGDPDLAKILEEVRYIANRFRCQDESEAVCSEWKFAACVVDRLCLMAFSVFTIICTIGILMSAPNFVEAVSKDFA
T2 sequence (Q9UGM1 26-479 limits assumed): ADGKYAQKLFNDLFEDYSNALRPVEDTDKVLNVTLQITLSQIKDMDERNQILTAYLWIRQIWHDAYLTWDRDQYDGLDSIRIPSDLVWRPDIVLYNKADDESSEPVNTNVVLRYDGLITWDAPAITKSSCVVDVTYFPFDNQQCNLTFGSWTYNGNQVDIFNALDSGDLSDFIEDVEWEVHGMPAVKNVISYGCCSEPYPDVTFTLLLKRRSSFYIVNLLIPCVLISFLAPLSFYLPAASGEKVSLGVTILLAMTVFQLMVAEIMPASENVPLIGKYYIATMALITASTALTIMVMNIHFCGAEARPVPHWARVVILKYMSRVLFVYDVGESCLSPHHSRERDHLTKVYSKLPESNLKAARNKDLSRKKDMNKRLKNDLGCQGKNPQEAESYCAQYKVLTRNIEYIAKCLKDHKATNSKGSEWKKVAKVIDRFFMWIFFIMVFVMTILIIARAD
T2 sequence (Q9GZZ6 25-450): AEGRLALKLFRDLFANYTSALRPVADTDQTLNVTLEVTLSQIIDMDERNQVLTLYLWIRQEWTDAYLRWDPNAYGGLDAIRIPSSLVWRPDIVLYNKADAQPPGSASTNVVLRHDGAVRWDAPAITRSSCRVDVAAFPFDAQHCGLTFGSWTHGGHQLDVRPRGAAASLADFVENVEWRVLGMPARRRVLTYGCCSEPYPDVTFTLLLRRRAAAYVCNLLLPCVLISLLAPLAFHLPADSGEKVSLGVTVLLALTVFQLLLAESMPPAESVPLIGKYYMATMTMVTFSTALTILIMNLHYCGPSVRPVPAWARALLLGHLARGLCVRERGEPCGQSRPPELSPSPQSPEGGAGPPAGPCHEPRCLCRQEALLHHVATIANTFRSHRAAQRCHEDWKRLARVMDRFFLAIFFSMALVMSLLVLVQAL
T1 sequence (P32297 32-505): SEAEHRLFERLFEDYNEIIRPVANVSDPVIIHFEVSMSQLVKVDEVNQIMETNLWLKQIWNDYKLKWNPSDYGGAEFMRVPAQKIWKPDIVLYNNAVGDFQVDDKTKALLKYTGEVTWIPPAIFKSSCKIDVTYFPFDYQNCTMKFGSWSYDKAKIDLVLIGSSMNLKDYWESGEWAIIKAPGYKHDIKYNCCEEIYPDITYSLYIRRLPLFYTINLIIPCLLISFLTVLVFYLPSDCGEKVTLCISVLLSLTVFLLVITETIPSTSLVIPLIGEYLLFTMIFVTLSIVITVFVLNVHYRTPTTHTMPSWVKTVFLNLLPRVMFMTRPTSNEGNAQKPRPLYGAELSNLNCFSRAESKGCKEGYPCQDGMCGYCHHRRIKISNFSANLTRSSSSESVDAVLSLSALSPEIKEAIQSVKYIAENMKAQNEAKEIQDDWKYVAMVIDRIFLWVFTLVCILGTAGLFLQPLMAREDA
T1 sequence (P17787 26-502): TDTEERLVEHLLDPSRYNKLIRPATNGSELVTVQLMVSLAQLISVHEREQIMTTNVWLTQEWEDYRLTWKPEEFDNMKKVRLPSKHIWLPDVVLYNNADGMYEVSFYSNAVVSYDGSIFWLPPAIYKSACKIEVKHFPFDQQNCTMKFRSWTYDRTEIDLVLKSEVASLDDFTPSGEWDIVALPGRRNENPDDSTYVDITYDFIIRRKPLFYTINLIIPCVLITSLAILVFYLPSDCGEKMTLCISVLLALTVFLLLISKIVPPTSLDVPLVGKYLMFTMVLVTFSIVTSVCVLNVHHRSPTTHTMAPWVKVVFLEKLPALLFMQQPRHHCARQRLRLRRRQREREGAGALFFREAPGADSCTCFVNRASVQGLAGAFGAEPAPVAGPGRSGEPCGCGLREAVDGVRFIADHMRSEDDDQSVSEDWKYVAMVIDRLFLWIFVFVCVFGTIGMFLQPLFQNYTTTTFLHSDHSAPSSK
T4 sequence (P30926 22-498): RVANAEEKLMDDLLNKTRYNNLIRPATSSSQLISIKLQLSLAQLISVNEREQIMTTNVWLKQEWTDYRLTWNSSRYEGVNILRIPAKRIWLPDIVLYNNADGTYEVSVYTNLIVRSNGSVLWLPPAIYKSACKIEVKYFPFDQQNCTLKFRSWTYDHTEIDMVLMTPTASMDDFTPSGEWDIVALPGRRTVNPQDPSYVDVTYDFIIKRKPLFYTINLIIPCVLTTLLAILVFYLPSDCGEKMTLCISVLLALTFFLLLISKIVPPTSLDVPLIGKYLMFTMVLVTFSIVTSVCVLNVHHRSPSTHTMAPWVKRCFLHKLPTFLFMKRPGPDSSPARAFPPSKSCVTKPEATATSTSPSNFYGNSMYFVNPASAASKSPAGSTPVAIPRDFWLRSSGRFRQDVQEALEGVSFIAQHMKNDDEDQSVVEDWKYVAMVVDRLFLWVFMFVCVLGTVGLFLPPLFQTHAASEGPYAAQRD
T4 sequence (P32297 32-505): as the sequence (P32297 32-505) above

Molecule	Relative current amplitude (h)α3β2 [1]	Relative current amplitude (h)α9α10 [2]	Relative current amplitude (h)α1β1γδ [3]	Relative current amplitude (h)α3β4 [4]	Relative current amplitude (h)α4β2 [5]	Relative current amplitude (h) α1β1εδ [6]	Relative current amplitude (h)α7 [7]	also measured
CC(C)C(NC(=O)C(N)Cc1c[nH]c2ccccc12)C(=O)NC(C(=O)NC(Cc1ccccc1)C(=O)O)C(C)C (stereo not shown) [Compound 1, psegynamide A] (H-WVVF-OH; configuration not given here)	0.435 ± 0.071	0.103 ± 0.027	0.664 ± 0.062	0.462 ± 0.069	0.637± 0.053	0.190 ± 0.056	0.293 ± 0.074	
COC(=O)[C@@H](Cc1ccccc1)NC(=O)[C@@H](NC(=O)[C@H](NC(=O)[C@@H](N)Cc1c[nH]c2ccccc12)C(C)C)C(C)C [Compound 2, psegynamide B] (H-W[dV]V[dF]-OMe)	0.236 ± 0.069	0.075 ± 0.036	0.017 ± 0.014	0.071 ± 0.028	0.301 ± 0.039	0.024 ± 0.011	0.566 ± 0.072	inhibition at 100 µM [1, 13]: > 70%; inhibition at 100 µM [2, 13]: > 70%; inhibition of ACh-evoked currents, α1β1γδ [3, 14]: > 70% and > 98%; inhibition at 100 µM [4, 13]: > 70%; inhibition at 100 µM [5, 13]: > 70%; inhibition of ACh-evoked currents, α1β1εδ [6, 14]: > 70%
CC(C)[C@H](NC(=O)[C@H](NC(=O)[C@@H](N)Cc1c[nH]c2ccccc12)C(C)C)C(=O)N[C@H](Cc1ccc(O)cc1)C(=O)O [Compound 3, psegynamide C] (H-W[dV]V[dY]-OH)	0.451 ± 0.056	0.509 ± 0.041	0.861 ± 0.084	0.675 ± 0.040	0.793 ± 0.078	0.648 ± 0.067	0.368 ± 0.088	
CC(C)[C@H](NC(=O)[C@H](NC(=O)[C@@H]1Cc2c([nH]c3ccccc23)CN1)C(C)C)C(=O)N[C@H](Cc1ccccc1)C(=O)O [Compound 4, psegynamide D]	0.924 ± 0.069	0.824 ± 0.064	0.985 ± 0.019	0.670 ± 0.049	0.972 ± 0.057	0.757 ± 0.065	0.228 ± 0.049	
COC(=O)[C@@H](Cc1ccccc1)NC(=O)[C@@H](NC(=O)[C@H](NC(=O)[C@@H]1Cc2c([nH]c3ccccc23)CN1)C(C)C)C(C)C [Compound 5, psegynamide E]	0.656 ± 0.074	0.374 ± 0.073	0.799 ± 0.063	0.656 ± 0.051	0.837 ± 0.061	0.392 ± 0.069	0.399 ± 0.061	
COC(=O)[C@@H](Cc1ccc(O)cc1)NC(=O)[C@@H](NC(=O)[C@H](NC(=O)[C@@H]1Cc2c([nH]c3ccccc23)CN1)C(C)C)C(C)C [Compound 6, psegynamide F] (H-[Tpi][dV]V[dY]-OMe)	0.579 ± 0.077	0.760 ± 0.062	0.802 ± 0.096	0.777 ± 0.053	0.938 ± 0.076	0.618 ± 0.047	0.838 ± 0.066	
C[C@@H]1C=CC(=O)[C@@]2(C)CC[C@@H]3[C@@H]4[C@@](C)(CC[C@@]4(C)CO)C[C@@]132 [conidiogenone C]								IC50 ([8]; read-out: IC50, cytotoxicity against HL60 cell lines): 38 nM; IC50 [9]: 900 nM
CC(=O)c1cc(C)c(O)c(C[C@]23Cc4c(O)c(C(C)=O)cc(C)c4O[C@@]2(O)[C@@H](C)OC3=O)c1O [penilactone A]								NF-kB inhibitory rate [10]: 40%
CC(=O)c1cc(C)c(O)c(C[C@@]23Cc4c(O)c(C(C)=O)cc(C)c4O[C@]2(O)[C@H](CC(=O)O)OC3=O)c1O [penilactone B]								NF-kB inhibitory rate [10]: 40%
trichobotryside A								EC50, inhibiting the larvae settlement of Balamus amphitrite [11]: 2.5 µg/mL
trisorbicillone A								IC50 ([8]; read-out: IC50, cytotoxic against HL60 cell lines): 3140 nM
α-conotoxin GI (ECCNPACGRHYSC; ends and bridges not checked; cysteine pairing not given here; UniProt X5I9Y2 50-62, looked up)								IC50 [12]: 20 nM

Source: paper PMC9604729, “Unusual Tetrahydropyridoindole-Containing Tetrapeptides with Human Nicotinic Acetylcholine Receptors Targeting Activity Discovered from Antarctica-Derived Psychrophilic Pseudogymnoascus sp. HDN17-933” (Marine Drugs, 2022)
